Measurements: BindingDB's records for doi:10.1016/s0960-894x(98)00617-9 (Scripps Research Institute, 1999)

How the values were obtained:
[1] = Compound was tested for inhibitory activity against alpha-Fucosidase obtained from Bovine epididymis
[2] = Compound was tested for inhibitory activity against alpha-1,2-Fucosidase obtained from Arthrobacter oxidans F1
[3] = Compound was tested for inhibitory activity against alpha-Fucosidase obtained from Bovine kidney

IC50 [1] [nM] | IC50 [2] [nM] | IC50 [3] [nM] | Structure (SMILES)
170 | 116 | 50 | CC1NC(CO)(CNC(=O)CN)C(O)C(O)C1O (centres undefined) [2-Amino-N-(3,4,5-trihydroxy-2-hydroxymethyl-6-methyl-piperidin-2-ylmethyl)-acetamide]
160 | 80 | 206 | CC1NC(CN)(CO)C(O)C(O)C1O (centres undefined) [2-Aminomethyl-2-hydroxymethyl-6-methyl-piperidine-3,4,5-triol]
110 | 122 | 75 | CC1NC(C#N)(CO)C(O)C(O)C1O (centres undefined) [3,4,5-Trihydroxy-2-hydroxymethyl-6-methyl-piperidine-2-carbonitrile]
